Like-named read-outs stand apart in the source and are kept apart here.
Tests used:
[1] = test system: ZC1/HGK, ZC2/TNIK, ZC3/MINK; assay: KiNativ kinase panel; format: cell-based, human; details: 1 μM, MCF-7 Cells, Lys2
JAK1_Domain2 domain2 = molecular target: T1, JAK1_Domain2 domain2 (Homo sapiens, UniProt P23458); assay: KiNativ kinase panel; format: cell-based; details: 1 μM, MCF-7 Cells
T1 construct: endogenous in cells; host or cells: MCF7

JNK1, JNK2, JNK3 = assay: KiNativ kinase panel; format: cell-based, human; details: 1 μM, MCF-7 Cells, Lys2
mTORC1 = molecular target: T2, mTORC1 (Homo sapiens, UniProt P42345+P62942); assay: Nanosyn Lipid Kinase screen; format: biochemical
T2 construct: purchased BPS lot # 150818-A
Experimental: (§1) complex formation) controls.
(§2) Nanosyn Lipid Kinase screen. Biochemical inhibition of lipid and related protein kinases was determined by Nanosyn (Santa Clara, CA). […]
(§3) was determined by detection of fluorescent substrates using a microfluidic electrophoresis mobility shift assay with a LabChip3000 instrument (Caliper/PerkinElmer). Bodipy labeled phosphatidylinositol 4,5 phosphate (FL-PIP2) (Echelon Biosciences, Salt Lake City, Utah) with 1,2-dioctanoyl-sn-glycero-3-phospho-L-serine (PS) (Avanti Polar Lipids (Alabaster, AL) was […]
(§4) of DNA-PK (Promega, Cat#V4106) on a peptide/dsDNA complex was assayed by detection of ADP formation using ADP-Glo (Promega). Kinase reactions were assembled in 384 well plates in a total volume of 20 µL as follows. For PI3K isoforms, the kinase protein was pre-diluted to 2x concentration in the assay buffer (50 mM HEPES, pH 7.5, 1 mM DTT, 5 mM MgCl 2, 0.01% […]
(§5) well plate (10 µL per well). Compounds were serially pre-diluted in DMSO and added to the protein samples by acoustic dispensing (200 nL, Labcyte Echo). Concentration of DMSO was equalized to 1% in all samples. All test compounds were tested at 12 concentrations, 3x dilution intervals. The control samples (0%-inhibition in the absence of inhibitor, DMSO only) and 100%-inhibition (in the absence of enzyme) were assembled in replicates of four and were used to calculate %-inhibition in the presence of compounds. After 30 min of pre-incubation with compounds, the reactions were initiated by addition of 10 µL of FL-PIP2/PS substrate (10 µM […]
(§6) (PI3Kα,β), 0.5 nM (PI3Kδ) and 10 nM (PI3Kγ). Final concentration of ATP was 100 µM.
(§7) Following incubation, the reactions were quenched by addition of 50 µL of termination buffer (100 mM HEPES, pH 7.5,

PI3K-BETA = molecular target: T3, PI3K-BETA (Homo sapiens, UniProt P42338); assay: Nanosyn Lipid Kinase screen; format: biochemical
T3 construct: purchased Carna lot # 12CBS-0359H
Experimental: as §1, §2, §3, §4, §5, §6, §7

PI3K-DELTA = molecular target: T4, PI3K-DELTA (Homo sapiens, UniProt O00329); assay: Nanosyn Lipid Kinase screen; format: biochemical
T4 construct: purchased Carna lot#09CBS-1198D
T4 sequence (O00329 whole entry, species assumed): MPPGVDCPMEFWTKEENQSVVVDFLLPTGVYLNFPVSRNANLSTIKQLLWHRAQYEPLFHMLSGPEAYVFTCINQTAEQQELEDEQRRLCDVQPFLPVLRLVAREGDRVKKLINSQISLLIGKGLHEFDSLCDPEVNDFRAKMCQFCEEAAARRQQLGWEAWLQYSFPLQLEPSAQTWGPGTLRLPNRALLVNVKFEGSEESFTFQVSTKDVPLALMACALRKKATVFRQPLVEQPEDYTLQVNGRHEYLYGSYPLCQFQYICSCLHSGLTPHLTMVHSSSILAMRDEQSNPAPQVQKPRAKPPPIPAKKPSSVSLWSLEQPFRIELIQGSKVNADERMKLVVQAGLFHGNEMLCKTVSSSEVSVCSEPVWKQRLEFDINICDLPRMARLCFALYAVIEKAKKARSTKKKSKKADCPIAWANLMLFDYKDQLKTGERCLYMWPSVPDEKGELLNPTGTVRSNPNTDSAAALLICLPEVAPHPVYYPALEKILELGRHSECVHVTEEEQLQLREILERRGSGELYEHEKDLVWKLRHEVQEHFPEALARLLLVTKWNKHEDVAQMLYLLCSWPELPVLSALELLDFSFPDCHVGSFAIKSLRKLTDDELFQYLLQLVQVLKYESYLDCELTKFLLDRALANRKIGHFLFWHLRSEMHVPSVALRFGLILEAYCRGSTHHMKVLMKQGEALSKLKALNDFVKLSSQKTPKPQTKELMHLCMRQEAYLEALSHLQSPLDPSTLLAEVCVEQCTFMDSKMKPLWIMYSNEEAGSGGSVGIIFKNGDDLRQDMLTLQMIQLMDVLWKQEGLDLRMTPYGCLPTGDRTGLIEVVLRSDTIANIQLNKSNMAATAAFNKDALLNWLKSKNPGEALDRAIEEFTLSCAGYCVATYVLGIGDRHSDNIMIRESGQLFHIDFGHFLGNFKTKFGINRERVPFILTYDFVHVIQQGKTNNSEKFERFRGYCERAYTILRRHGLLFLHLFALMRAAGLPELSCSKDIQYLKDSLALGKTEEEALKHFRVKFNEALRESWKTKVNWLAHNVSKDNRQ
T4 sequence (P27986 whole entry partner, species assumed): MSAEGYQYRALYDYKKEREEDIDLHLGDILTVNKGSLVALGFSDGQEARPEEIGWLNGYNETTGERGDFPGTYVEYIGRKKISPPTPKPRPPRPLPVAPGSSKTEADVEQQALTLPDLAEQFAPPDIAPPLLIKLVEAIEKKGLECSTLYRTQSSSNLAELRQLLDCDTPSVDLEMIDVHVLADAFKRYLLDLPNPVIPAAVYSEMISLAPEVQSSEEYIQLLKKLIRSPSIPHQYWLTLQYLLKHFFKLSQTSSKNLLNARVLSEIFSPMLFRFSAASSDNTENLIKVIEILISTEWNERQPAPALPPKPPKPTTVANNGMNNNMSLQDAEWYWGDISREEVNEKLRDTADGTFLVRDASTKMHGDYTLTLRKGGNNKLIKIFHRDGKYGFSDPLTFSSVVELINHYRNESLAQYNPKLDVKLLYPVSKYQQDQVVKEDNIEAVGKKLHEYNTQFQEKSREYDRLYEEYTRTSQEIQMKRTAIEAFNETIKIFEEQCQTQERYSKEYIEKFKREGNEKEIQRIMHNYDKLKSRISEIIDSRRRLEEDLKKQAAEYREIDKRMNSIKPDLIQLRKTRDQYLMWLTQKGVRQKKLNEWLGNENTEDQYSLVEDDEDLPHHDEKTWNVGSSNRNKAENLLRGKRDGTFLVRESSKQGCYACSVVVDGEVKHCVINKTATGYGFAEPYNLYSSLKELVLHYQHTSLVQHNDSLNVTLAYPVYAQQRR
T4 sequence (P62942 whole entry partner, species assumed): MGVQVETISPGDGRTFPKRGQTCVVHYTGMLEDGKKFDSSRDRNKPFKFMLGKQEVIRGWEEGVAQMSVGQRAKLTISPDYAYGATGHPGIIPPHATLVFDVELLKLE
Experimental: as §1, §2, §3, §4, §5, §6, §7

PI3K-GAMMA = molecular target: T5, PI3K-GAMMA (Homo sapiens, UniProt P48736); assay: Nanosyn Lipid Kinase screen; format: biochemical
T5 construct: purchased Thermo Fisher lot#1716438D
Experimental: as §1, §2, §3, §4, §5, §6, §7

PI3K-ALPHA = molecular target: T6, PI3K-ALPHA (Homo sapiens, UniProt P42336); assay: Nanosyn Lipid Kinase screen; format: biochemical
T6 construct: purchased BPS lot #110809
Experimental: as §1, §2, §3, §4, §5, §6, §7

CDK2 = molecular target: T7, CDK2 (Homo sapiens, UniProt P24941); assay: KiNativ kinase panel; format: cell-based; details: 1 μM, MCF-7 Cells
T7 construct: purchased ActivX Biosciences (KiNativ)

p38d, p38g = assay: KiNativ kinase panel; format: cell-based, human; details: 1 μM, MCF-7 Cells, Lys2
tumor p4EBP1 = assay: Tumor PD after a single dose in the MCF-7 CDX model; format: in vivo, mice; details: for effect on tumor p4EBP1 levels: MCF-7 CDX, single dose (38, 40 ip; everolimus 5 mg/kg oral); for MCF-7 tumor PD: dose proportional duration of >80% p4EBP1 inhibition: single ip dose
MST3 = molecular target: T8, MST3 (Homo sapiens, UniProt Q9Y6E0); assay: KiNativ kinase panel; format: cell-based; details: 1 μM; MCF-7 Cells; Lys2; DIKAANVLLSEHGEVK
T8 construct: purchased ActivX Biosciences (KiNativ)
T8 sequence (Q9Y6E0 whole entry): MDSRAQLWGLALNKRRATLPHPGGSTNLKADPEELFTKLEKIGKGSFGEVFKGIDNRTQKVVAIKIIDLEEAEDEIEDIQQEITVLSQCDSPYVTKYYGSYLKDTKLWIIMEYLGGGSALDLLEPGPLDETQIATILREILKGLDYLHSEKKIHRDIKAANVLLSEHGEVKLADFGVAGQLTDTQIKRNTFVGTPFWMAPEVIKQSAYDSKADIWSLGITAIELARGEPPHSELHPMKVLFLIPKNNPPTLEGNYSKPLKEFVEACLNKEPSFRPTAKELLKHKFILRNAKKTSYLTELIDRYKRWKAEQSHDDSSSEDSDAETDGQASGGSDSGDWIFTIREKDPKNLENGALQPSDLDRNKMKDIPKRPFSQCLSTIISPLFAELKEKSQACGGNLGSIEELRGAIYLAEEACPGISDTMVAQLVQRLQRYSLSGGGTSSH

MARK3, MARK4 = assay: KiNativ kinase panel; format: cell-based, human; details: 1 μM; MCF-7 Cells; Lys1; EVAIKIIDK
PCTAIRE1, PCTAIRE3 = assay: KiNativ kinase panel; format: cell-based, human; details: 1 μM, MCF-7 Cells, Lys2
MAST1, MAST2 = assay: KiNativ kinase panel; format: cell-based, human; details: 1 μM, MCF-7 Cells, Lys2
SMG1 = molecular target: T9, SMG1 (Homo sapiens, UniProt Q96Q15); assay: KiNativ kinase panel; format: cell-based; details: 1 μM, MCF-7 Cells, ATP
T9 construct: endogenous in cells; host or cells: MCF7

LOK = molecular target: T10, LOK (Homo sapiens, UniProt O94804); assay: KiNativ kinase panel; format: cell-based; details: 1 μM; MCF-7 Cells; Lys2; DLKAGNVLMTLEGDIR
T10 construct: endogenous in cells; host or cells: MCF7
T10 sequence (O94804 whole entry): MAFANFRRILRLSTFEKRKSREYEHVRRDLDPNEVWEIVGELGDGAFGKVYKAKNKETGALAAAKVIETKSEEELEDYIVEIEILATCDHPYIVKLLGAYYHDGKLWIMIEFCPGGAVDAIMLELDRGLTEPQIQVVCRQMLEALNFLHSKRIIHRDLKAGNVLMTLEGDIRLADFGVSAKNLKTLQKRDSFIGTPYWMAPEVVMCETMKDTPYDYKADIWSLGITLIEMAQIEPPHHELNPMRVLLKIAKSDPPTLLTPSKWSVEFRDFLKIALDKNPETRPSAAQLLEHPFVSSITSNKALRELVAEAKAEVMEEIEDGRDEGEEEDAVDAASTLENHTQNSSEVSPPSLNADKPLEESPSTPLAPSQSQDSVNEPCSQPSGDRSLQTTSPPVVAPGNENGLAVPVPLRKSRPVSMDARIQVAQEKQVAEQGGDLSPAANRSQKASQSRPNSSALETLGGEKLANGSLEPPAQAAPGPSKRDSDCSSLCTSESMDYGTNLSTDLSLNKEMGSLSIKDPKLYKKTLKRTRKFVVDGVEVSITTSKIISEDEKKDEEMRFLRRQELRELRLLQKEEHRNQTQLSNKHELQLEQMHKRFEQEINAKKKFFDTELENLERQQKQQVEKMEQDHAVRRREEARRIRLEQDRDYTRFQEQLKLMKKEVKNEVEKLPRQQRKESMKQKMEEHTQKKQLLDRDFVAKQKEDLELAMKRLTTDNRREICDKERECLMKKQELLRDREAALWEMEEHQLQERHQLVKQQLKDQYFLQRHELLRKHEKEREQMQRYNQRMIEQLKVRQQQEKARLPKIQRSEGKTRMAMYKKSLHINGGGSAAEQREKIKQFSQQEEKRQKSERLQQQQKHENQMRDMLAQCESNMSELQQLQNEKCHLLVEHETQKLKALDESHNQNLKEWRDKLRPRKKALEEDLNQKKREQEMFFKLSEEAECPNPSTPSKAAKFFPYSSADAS

p70S6K, p70S6Kb = assay: KiNativ kinase panel; format: cell-based, human; details: 1 μM, MCF-7 Cells, ATP Loop
NDR1, NDR2 = assay: KiNativ kinase panel; format: cell-based, human; details: 1 μM; MCF-7 Cells; Activation Loop; LSDFGLCTGLKK
Wnk1, Wnk2 = assay: KiNativ kinase panel; format: cell-based, human; details: 1 μM; MCF-7 Cells; ATP Loop; GSFKTVYK
CK1g1, CK1g2, CK1g3 = assay: KiNativ kinase panel; format: cell-based, human; details: 1 μM, MCF-7 Cells, ATP Loop
CK1g1 = molecular target: T11, CK1g1 (Homo sapiens, UniProt Q9HCP0); assay: KiNativ kinase panel; format: cell-based; details: 1 μM, MCF-7 Cells, Lys2
T11 construct: endogenous in cells; host or cells: MCF7

MAP3K2, MAP3K3 = assay: KiNativ kinase panel; format: cell-based, human; details: 1 μM; MCF-7 Cells; Lys2; DIKGANILR
MST1 = molecular target: T12, MST1 (Homo sapiens, UniProt Q13043); assay: KiNativ kinase panel; format: cell-based; details: 1 μM; MCF-7 Cells; Lys1; ETGQIVAIKQVPVESDLQEIIK
T12 construct: purchased ActivX Biosciences (KiNativ)

CSK = molecular target: T13, CSK (Homo sapiens, UniProt P41240); assay: KiNativ kinase panel; format: cell-based; details: 1 μM, MCF-7 Cells
T13 construct: MCF7 cells were exposed to; endogenous in cells; host or cells: MCF7
T13 sequence (P41240 whole entry): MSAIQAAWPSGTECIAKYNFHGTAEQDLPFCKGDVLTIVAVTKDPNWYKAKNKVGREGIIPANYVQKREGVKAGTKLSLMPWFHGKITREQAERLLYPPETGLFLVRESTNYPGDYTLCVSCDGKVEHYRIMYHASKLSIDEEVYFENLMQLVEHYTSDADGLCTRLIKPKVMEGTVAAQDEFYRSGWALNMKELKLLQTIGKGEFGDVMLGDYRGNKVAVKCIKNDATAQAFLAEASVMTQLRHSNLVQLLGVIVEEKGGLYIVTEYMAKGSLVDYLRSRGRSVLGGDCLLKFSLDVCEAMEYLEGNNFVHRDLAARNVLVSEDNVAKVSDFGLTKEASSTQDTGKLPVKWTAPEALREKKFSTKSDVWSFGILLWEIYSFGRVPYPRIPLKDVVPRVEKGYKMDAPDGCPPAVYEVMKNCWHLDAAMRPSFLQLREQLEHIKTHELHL

[2] = Activation Loop, IGDFGLTKAIETDKEYYTVK
[3] = Lys1, YDPEGDNTGEQVAVKSLKPESGGNHIADLKK
[4] = Activation Loop, VSDFGLTKEASSTQDTGKLPVK

T1 sequence (P23458 whole entry, the tested form may be a part): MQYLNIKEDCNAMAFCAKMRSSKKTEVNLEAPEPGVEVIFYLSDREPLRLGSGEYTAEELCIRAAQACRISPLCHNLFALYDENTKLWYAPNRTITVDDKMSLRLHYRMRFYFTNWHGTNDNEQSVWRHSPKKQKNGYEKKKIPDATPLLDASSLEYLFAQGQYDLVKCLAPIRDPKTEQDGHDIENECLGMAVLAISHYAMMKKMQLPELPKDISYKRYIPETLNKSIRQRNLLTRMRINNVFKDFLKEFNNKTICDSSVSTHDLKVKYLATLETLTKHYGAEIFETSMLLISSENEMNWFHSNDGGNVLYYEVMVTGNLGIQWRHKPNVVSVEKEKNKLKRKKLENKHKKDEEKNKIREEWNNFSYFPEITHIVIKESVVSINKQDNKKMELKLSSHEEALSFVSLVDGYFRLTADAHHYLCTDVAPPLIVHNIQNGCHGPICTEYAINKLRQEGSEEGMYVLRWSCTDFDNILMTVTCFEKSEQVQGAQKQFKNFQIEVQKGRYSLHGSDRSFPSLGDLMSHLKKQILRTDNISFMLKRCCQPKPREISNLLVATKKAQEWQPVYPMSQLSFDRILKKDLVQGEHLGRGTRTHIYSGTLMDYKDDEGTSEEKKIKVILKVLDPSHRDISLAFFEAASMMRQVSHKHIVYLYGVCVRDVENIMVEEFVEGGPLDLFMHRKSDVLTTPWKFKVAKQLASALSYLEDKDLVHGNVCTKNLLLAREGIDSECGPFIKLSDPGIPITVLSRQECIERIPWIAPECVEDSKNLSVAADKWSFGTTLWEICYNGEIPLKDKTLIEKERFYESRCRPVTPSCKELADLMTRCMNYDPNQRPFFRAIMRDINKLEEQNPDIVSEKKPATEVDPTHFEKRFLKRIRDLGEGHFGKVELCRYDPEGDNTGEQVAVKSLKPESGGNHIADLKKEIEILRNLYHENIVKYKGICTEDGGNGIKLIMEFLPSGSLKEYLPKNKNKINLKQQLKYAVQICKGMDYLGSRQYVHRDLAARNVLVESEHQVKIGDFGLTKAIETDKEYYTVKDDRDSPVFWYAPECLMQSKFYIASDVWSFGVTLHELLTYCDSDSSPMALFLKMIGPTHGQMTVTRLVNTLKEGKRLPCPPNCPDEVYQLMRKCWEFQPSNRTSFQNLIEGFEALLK

Row | Structure (SMILES) | KiNativ Kinase Panel Data (JAK1_Domain2 domain2; [2]) | KiNativ Kinase Panel Data (JAK1_Domain2 domain2; [3]) | KiNativ Kinase Panel Data (CDK2; Lys1, LTGEVVALKK) | KiNativ Kinase Panel Data (CDK2; Lys2, DLKPQNLLINTEGAIK) | effect on tumor p4EBP1 levels (tumor p4EBP1) | MCF-7 tumor PD: dose proportional duration of >80% p4EBP1 inhibition (tumor p4EBP1) [h] | KiNativ Kinase Panel Data (MST3) | KiNativ Kinase Panel Data (MARK3, MARK4) | KiNativ Kinase Panel Data (SMG1; DTVTIHSVGGTITILPTKTKPK) | KiNativ Kinase Panel Data (SMG1; SYPYLFKGLEDLHLDER) | KiNativ Kinase Panel Data (LOK) | KiNativ Kinase Panel Data (NDR1, NDR2) | KiNativ Kinase Panel Data (Wnk1, Wnk2) | KiNativ Kinase Panel Data (MAP3K2, MAP3K3) | KiNativ Kinase Panel Data (MST1) | KiNativ Kinase Panel Data (CSK; [4]) | KiNativ Kinase Panel Data (CSK; Lys1, VAVKCIK) | further results
1 | CO[C@H]1C[C@@H]2CC[C@@H](C)[C@@](O)(O2)C(=O)C(=O)N2CCCC[C@H]2C(=O)O[C@H]([C@H](C)C[C@@H]2CC[C@@H](OC(=O)NCCOCCOCCOCCOCCOCCOCCOCCOCCC(=O)NCCS(=O)(=O)c3ccc(C(=O)N4CCOc5ccc(-c6ccc(N)nc6)cc5C4)c(C)c3F)[C@H](OC)C2)C[C@@H](O)[C@H](C)/C=C(\C)[C@@H](O)[C@@H](OC)C(=O)[C@H](C)C[C@H](C)/C=C/C=C/C=C/1C [compound 40] | 19.5 | 13.3 | -29.1 | -40.9 | dose-dependent, robust, and long-lasting inhibition | 24 to 48 | 11.0 | 13.2 | -11.1 | 11.7 | -19.4 | -18.5 | -3.7 | -18.2 | 18.2 | 5.5 | 17.7 | KiNativ Kinase Panel Data ([1]; DIKGQNVLLTENAEVK): -13.4; KiNativ Kinase Panel Data (JNK1, JNK2, JNK3; DLKPSNIVVK): -9.5; IC50 (mTORC1; read-out: mTORC1 IC50, Nanosyn, with FKBP12): 0.473 nM; IC50 (PI3K-BETA; Nanosyn, with FKBP12): > 1000 nM; IC50 (PI3K-DELTA; Nanosyn, with FKBP12, read-out: PI3K-DELTA IC50): > 1000 nM; IC50 (PI3K-GAMMA; Nanosyn, with FKBP12, read-out: PI3K-GAMMA IC50): > 1000 nM; IC50 (PI3K-ALPHA; Nanosyn, with FKBP12, read-out: PI3K-ALPHA IC50): > 1000 nM; KiNativ Kinase Panel Data (p38d, p38g; DLKPGNLAVNEDCELK): -28.8; KiNativ Kinase Panel Data (PCTAIRE1, PCTAIRE3; DLKPQNLLINER): -31.2; KiNativ Kinase Panel Data (MAST1, MAST2; DLKPDNLLITSMGHIK): 22.5; KiNativ Kinase Panel Data (p70S6K, p70S6Kb; GGYGKVFQVR): -4.7; KiNativ Kinase Panel Data (CK1g1, CK1g2, CK1g3; KIGCGNFGELR): -7.8; KiNativ Kinase Panel Data (CK1g1; DVKPENFLIGR): 1.3
2 | CO[C@H]1C[C@@H]2CC[C@@H](C)[C@@](O)(O2)C(=O)C(=O)N2CCCC[C@H]2C(=O)O[C@H]([C@H](C)C[C@@H]2CC[C@@H](OC(=O)NCCOCCOCCOCCOCCOCCOCCOCCOCCC(=O)N3CCc4cc(Cn5nc(-c6ccc7oc(N)nc7c6)c6c(N)ncnc65)ccc4C3)[C@H](OC)C2)C[C@@H](O)[C@H](C)/C=C(\C)[C@@H](O)[C@@H](OC)C(=O)[C@H](C)C[C@H](C)/C=C/C=C/C=C/1C [compound 38] | 31.3 | 26.2 | 1.0 | 13.1 | dose-dependent, prolonged, and profound inhibition | 24 to 48 | 22.2 | 7.2 | 0.8 | 21.6 | -65.4 | 25.0 | 13.6 | -12.6 | 10.7 | 1.9 | 13.6 | KiNativ Kinase Panel Data ([1]; […]): 8.5; KiNativ Kinase Panel Data (JNK1, JNK2, JNK3; […]): 13.8; IC50 (mTORC1): 0.774 nM; IC50 (PI3K-BETA): > 1000 nM; IC50 (PI3K-DELTA): 95 nM; IC50 (PI3K-GAMMA): > 1000 nM; IC50 (PI3K-ALPHA): 41.2 nM; KiNativ Kinase Panel Data (p38d, p38g; […]): -3.7; KiNativ Kinase Panel Data (PCTAIRE1, PCTAIRE3; […]): 13.9; KiNativ Kinase Panel Data (MAST1, MAST2; […]): 19.6; KiNativ Kinase Panel Data (p70S6K, p70S6Kb; […]): 20.1; KiNativ Kinase Panel Data (CK1g1, CK1g2, CK1g3; […]): 8.9; KiNativ Kinase Panel Data (CK1g1; […]): 4.7
